Calls of active or inactive are those of the source. The rule behind the calls is not given here.
Columns and labels:
Mus musculus [1] = assay: Anticonvulsant activity in albino mouse assessed as protection against maximal electroshock-induced seizures at 100 mg/kg, ip after 4 hrs; type: functional, organism-based; set-up: dose 100 mg/kg
Mus musculus [2] = assay: Anticonvulsant activity in albino mouse assessed as protection against subcutaneous metrazole-induced seizures at 100 mg/kg, ip after 4 hrs; type: functional, organism-based; set-up: dose 100 mg/kg
Mus musculus [3] = assay: Neurotoxicity in albino mouse assessed as minimal motor impairment at 100 mg/kg, ip after 0.5 hrs by rotorod test; type: toxicity, organism-based; set-up: dose 100 mg/kg, route intraperitoneal; conditions: in vivo
Rattus norvegicus = assay: Anticonvulsant activity in po dosed albino Sprague-Dawley rat assessed as protection against maximal electroshock-induced seizures after […] to 4 hrs; type: functional, organism-based
Mus musculus [4] = assay: Anticonvulsant activity in albino mouse assessed as protection against subcutaneous metrazole-induced seizures at 100 mg/kg, ip after 0.5 hrs; type: functional, organism-based; set-up: dose 100 mg/kg
Mus musculus [5] = assay: Anticonvulsant activity in albino mouse assessed as protection against maximal electroshock-induced seizures at 100 mg/kg, ip after 1 hr; type: functional, organism-based; set-up: dose 100 mg/kg
Mus musculus [6] = assay: Neurotoxicity in albino mouse assessed as minimal motor impairment at 100 mg/kg, ip after 4 hrs by rotorod test; type: toxicity, organism-based; set-up: dose 100 mg/kg, route intraperitoneal; conditions: in vivo
Mus musculus [7] = assay: Toxicity in subcutaneous metrazole treated albino mouse assessed as myoclonic jerks at 100 mg/kg, ip after 0.5 hrs; type: organism-based; set-up: dose 100 mg/kg; conditions: in vivo, sc
Mus musculus [8] = assay: Neurotoxicity in albino mouse assessed as minimal motor impairment at 100 mg/kg, ip after 1 hr by rotorod test; type: toxicity, organism-based; set-up: dose 100 mg/kg, route intraperitoneal; conditions: in vivo
Mus musculus [9] = assay: Neurotoxicity in albino mouse assessed as minimal motor impairment at 100 mg/kg, ip after 0.25 hrs by rotorod test; type: toxicity, organism-based; set-up: dose 100 mg/kg, route intraperitoneal; conditions: in vivo
Mus musculus [10] = assay: Anticonvulsant activity in albino mouse assessed as protection against maximal electroshock-induced seizures at 100 mg/kg, ip after 0.25 hrs; type: functional, organism-based; set-up: dose 100 mg/kg
Mus musculus [11] = assay: Anticonvulsant activity in albino mouse assessed as protection against maximal electroshock-induced seizures at 100 mg/kg, ip after 0.5 hrs; type: functional, organism-based; set-up: dose 100 mg/kg
Mus musculus [12] = assay: Anticonvulsant activity in ip dosed albino mouse assessed as protection against 6 Hz psychomotor seizure by minimal clonic seizure test; type: functional
Mus musculus [13] = assay: Anticonvulsant activity in ip dosed albino mouse assessed as time of peak effect for protection against 6 Hz psychomotor seizure by minimal clonic seizure test; type: functional
[14] = Neurotoxicity in ip dosed albino mouse minimal clonic seizure model assessed as minimal motor impairment by rotorod test; type: toxicity, organism-based; conditions: in vivo
Mus musculus [15] = assay: Neurotoxicity in albino mouse minimal clonic seizure model assessed as minimal motor impairment at 100 mg/kg, ip after 0.25 hrs by rotorod test; type: toxicity, organism-based; set-up: dose 100 mg/kg, route intraperitoneal; conditions: in vivo
Mus musculus [16] = assay: Anticonvulsant activity in albino mouse assessed as protection against 6 Hz psychomotor seizure at 100 mg/kg, ip after 0.5 hrs by minimal clonic seizure test; type: functional, organism-based; set-up: dose 100 mg/kg
Mus musculus [17] = assay: Anticonvulsant activity in albino mouse assessed as protection against 6 Hz psychomotor seizure at 100 mg/kg, ip after 2 hrs by minimal clonic seizure test; type: functional, organism-based; set-up: dose 100 mg/kg
Mus musculus [18] = assay: Neurotoxicity in albino mouse minimal clonic seizure model assessed as loss of righting reflex at 100 mg/kg, ip after 0.25 hrs by rotorod test; type: toxicity, organism-based; set-up: dose 100 mg/kg, route intraperitoneal; conditions: in vivo
Mus musculus [19] = assay: Anticonvulsant activity in albino mouse assessed as protection against 6 Hz psychomotor seizure at 100 mg/kg, ip after 1 hr by minimal clonic seizure test; type: functional, organism-based; set-up: dose 100 mg/kg
Mus musculus [20] = assay: Neurotoxicity in albino mouse minimal clonic seizure model assessed as minimal motor impairment at 100 mg/kg, ip after 1 hr by rotorod test; type: toxicity, organism-based; set-up: dose 100 mg/kg, route intraperitoneal; conditions: in vivo
Mus musculus [21] = assay: Anticonvulsant activity in albino mouse assessed as protection against 6 Hz psychomotor seizure at 100 mg/kg, ip after 4 hrs by minimal clonic seizure test; type: functional, organism-based; set-up: dose 100 mg/kg
Mus musculus [22] = assay: Neurotoxicity in albino mouse minimal clonic seizure model assessed as minimal motor impairment at 100 mg/kg, ip after 2 hrs by rotorod test; type: toxicity, organism-based; set-up: dose 100 mg/kg, route intraperitoneal; conditions: in vivo
Mus musculus [23] = assay: Anticonvulsant activity in albino mouse assessed as protection against subcutaneous metrazole-induced seizures at 100 mg/kg, ip after 0.25 hrs; type: functional, organism-based; set-up: dose 100 mg/kg
Mus musculus [24] = assay: Neurotoxicity in albino mouse minimal clonic seizure model assessed as minimal motor impairment at 100 mg/kg, ip after 0.5 hrs by rotorod test; type: toxicity, organism-based; set-up: dose 100 mg/kg, route intraperitoneal; conditions: in vivo
Mus musculus [25] = assay: Neurotoxicity in albino mouse minimal clonic seizure model assessed as minimal motor impairment at 100 mg/kg, ip after 4 hrs by rotorod test; type: toxicity, organism-based; set-up: dose 100 mg/kg, route intraperitoneal; conditions: in vivo
Mus musculus [26] = assay: Anticonvulsant activity in albino mouse assessed as protection against 6 Hz psychomotor seizure at 100 mg/kg, ip after 0.25 hrs by minimal clonic seizure test; type: functional, organism-based; set-up: dose 100 mg/kg
Mus musculus [27] = assay: Anticonvulsant activity in albino mouse assessed as protection against subcutaneous metrazole-induced seizures at 100 mg/kg, ip after 1 hr; type: functional, organism-based; set-up: dose 100 mg/kg

Compound: O=C1NC(=O)[C@@H]2CCCN2[C@H]1c1ccc(Cl)c(Cl)c1
- Activity (Mus musculus [1]): inactive
- Activity (Mus musculus [2]): inactive
- Activity (Mus musculus [3]): Non-toxic
- Activity (Rattus norvegicus): inactive
- Activity (Mus musculus [4]): Active
- Activity (Mus musculus [5]): inactive
- Activity (Mus musculus [6]): Non-toxic
- Activity (Mus musculus [7]): Toxic
- Activity (Mus musculus [8]): Non-toxic
- Activity (Mus musculus [9]): Non-toxic
- Activity (Mus musculus [10]): inactive
- Activity (Mus musculus [11]): inactive

Compound: O=C1NC(=O)C(c2ccccc2)(c2ccccc2)N1 [PHENYTOIN]
- ED50 (Mus musculus [12]): > 60 mg/kg

Compound: CC[C@@H](C(N)=O)N1CCCC1=O
- Time (Mus musculus [13]): 1 h
- TD50 [14]: > 500 mg/kg

Compound: CCC1(C)CC(=O)NC1=O (stereo not given) [ETHOSUXIMIDE]
- Time (Mus musculus [13]): 0.25 h

Compound: O=C1NC(=O)[C@@H]2CCCN2[C@H]1c1cccc(Cl)c1
- Activity (Mus musculus [15]): Toxic
- Activity (Mus musculus [1]): inactive
- Activity (Mus musculus [2]): inactive
- Activity (Mus musculus [3]): Non-toxic
- Activity (Rattus norvegicus): inactive
- Activity (Mus musculus [16]): Active
- Activity (Mus musculus [17]): inactive
- Activity (Mus musculus [4]): inactive
- Activity (Mus musculus [5]): Active
- Activity (Mus musculus [18]): Toxic
- Activity (Mus musculus [19]): Active
- Activity (Mus musculus [6]): Non-toxic
- Activity (Mus musculus [20]): Non-toxic
- Activity (Mus musculus [8]): Non-toxic
- Activity (Mus musculus [21]): inactive
- Activity (Mus musculus [22]): Non-toxic
- Activity (Mus musculus [23]): Active
- Activity (Mus musculus [24]): Toxic
- Activity (Mus musculus [25]): Non-toxic
- Activity (Mus musculus [9]): Toxic
- Activity (Mus musculus [26]): Active
- Activity (Mus musculus [10]): Active
- Activity (Mus musculus [11]): Active
- Activity (Mus musculus [27]): inactive
